Values of other authors, collected in patent US6495562B1, “Naphthamidine urokinase inhibitors” (Abbott Laboratories, priority 2000, dated 2002).

How the values were obtained:
tumor metastasis = conditions: Anticancer Res. 1988, 8, 1373-1376
angiogenesis = conditions: J. Cell Biol. 1991, 115[3 Pt 2], 402a

Structure (SMILES): N=C(N)NC(=O)c1nc(Cl)c(N)nc1N [Amiloride]
- inhibition of tumor metastasis in vivo (tumor metastasis): inhibit
- inhibition of angiogenesis in vitro (angiogenesis): inhibit
